According to ChEMBL document CHEMBL6071133, “Discovery of novel penetrating peptides able to target human leukemia and lymphoma for enhanced PROTAC delivery” (Eur J Med Chem, 2024):

How the values were obtained:
[1] = Drug uptake in human CCRF-CEM cells assessed as membrane penetration by measuring increase in fluorescence intensity at 5 umol/L incubated for 2 hrs by flow cytometry relative to C9C; format: ADME, cell-based; conditions: 5 µM, dose 5 µmol/L
[2] = Drug uptake in human CCRF-CEM cells assessed as increase in fluorescence intensity at 1 to 10 uM incubated for 2 hrs by flow cytometry; format: ADME, cell-based; conditions: dose 1-10 µM
[3] = Drug uptake in human CCRF-CEM cells assessed as increase in fluorescence intensity at 5 umol/L measured for 60 to 240 mins by flow cytometry; format: ADME, cell-based; conditions: 5 µM, TDE = time-dependent effect, time 60-240 min, dose 5 µmol/L
[4] = Drug uptake in human CCRF-CEM cells assessed as increase in fluorescence intensity at 1 to 10 umol/L incubated for 2 hrs by cell imaging based fluorescence microscopic analysis; format: ADME; conditions: dose 1-10 µmol/L
[5] = Drug uptake in human THP-1 cells assessed as increase in fluorescence intensity at 10 umol/L incubated for 2 hrs by cell imaging based fluorescence microscopic analysis; format: ADME; conditions: thp-1, 2 h, 10 µM, dose 10 µmol/L
[6] = Drug uptake in human K562 cells assessed as perinuclear distribution and colocalization with nucleus at 10 umol/L incubated for 2 hrs by confocal laser microscopy; format: ADME, cell-based; conditions: k562, 2 h, 10 µM, dose 10 µmol/L
[7] = Drug uptake in human KU812 cells assessed as perinuclear distribution and colocalization with nucleus at 10 umol/L incubated for 2 hrs by confocal laser microscopy; format: ADME, cell-based; conditions: ku812, 2 h, 10 µM, dose 10 µmol/L
[8] = Drug uptake in human CCRF-CEM cells assessed as perinuclear distribution and colocalization with nucleus at 10 umol/L incubated for 2 hrs by confocal laser microscopy; format: ADME, cell-based; conditions: 10 µM, dose 10 µmol/L
[9] = Drug uptake in human CCRF-CEM cells assessed as increase in fluorescence intensity at 5 umol/L measured for 5 to 60 mins by flow cytometry; format: ADME, cell-based; conditions: 5 µM, time 5-60 min, dose 5 µmol/L

Compound: CC(C)C[C@@H]1NC(=O)[C@H](Cc2csc3ccccc23)NC(=O)[C@@H](Cc2ccccc2)NC(=O)[C@H](Cc2ccccc2)NC(=O)[C@H](CCCNC(=N)N)NC(=O)[C@H](CCCCN)NC(=O)[C@H](CCC(=O)O)NC(=O)[C@H](CO)NC(=O)[C@H](CCCNC(=N)N)NC1=O
- fold change (FC) [1]: 2.97
- Drug uptake [2]: Dose-Dependent Effect
- Drug uptake [3]: Tde
- Drug uptake [4]: Active
- Drug uptake [5]: Active
- Drug uptake [6]: Active
- Drug uptake [7]: Active
- Drug uptake [8]: Active
- Drug uptake [9]: Active
